A value given as a limit tells only on which side of the number the result lay.

What is called AC50 is the concentration at which the activity in the assay is half-maximal. A higher AC50 goes with activity only at high concentration.

PKM2, sequence (P14618 whole entry): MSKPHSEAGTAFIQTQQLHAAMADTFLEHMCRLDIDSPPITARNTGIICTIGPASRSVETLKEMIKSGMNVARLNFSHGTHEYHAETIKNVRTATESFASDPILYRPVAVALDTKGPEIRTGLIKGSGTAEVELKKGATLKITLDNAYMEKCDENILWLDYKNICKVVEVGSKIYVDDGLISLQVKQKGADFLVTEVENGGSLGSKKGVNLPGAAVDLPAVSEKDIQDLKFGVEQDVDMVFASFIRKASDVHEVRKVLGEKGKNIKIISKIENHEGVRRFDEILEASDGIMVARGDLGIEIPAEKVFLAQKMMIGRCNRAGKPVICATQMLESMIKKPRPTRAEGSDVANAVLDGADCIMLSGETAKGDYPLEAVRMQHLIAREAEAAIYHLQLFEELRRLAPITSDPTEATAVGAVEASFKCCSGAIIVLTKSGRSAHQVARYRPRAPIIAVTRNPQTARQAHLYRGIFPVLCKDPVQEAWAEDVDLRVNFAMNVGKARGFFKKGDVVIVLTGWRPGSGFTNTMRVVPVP

The first data set concerns the target PKM2 (Homo sapiens, UniProt P14618). Put plainly: PKM2 Assay Procedure (LDH/NADH-coupled, absorbance at 340 nm). It is filed as biochemical. As to conditions: Table 1; PKM2 activation. As for the experimental part:
B refers to an activator of PKM2 with an AC50 between 100 nM and 500 nM. C refers to an activator of PKM2 with an AC50 greater than 500 nM. AC50s described here in Tables 1 and 2 and FIGS. 1 and 2A-2D are measured according to the “PKM2 Assay Procedure” below.
• PKM2 stock enzyme solution was diluted in Reaction Buffer • 2 μL of compound was added into each well first, and then 180 μL of the Reaction Mix was added. • Reaction mixture with compound (without ADP) were incubated for 30 minutes at 4° C. • Plates were re-equilibrated to room temperature prior to adding 20 μL ADP to initiate the reaction. • Reaction progress was measured as changes in absorbance at 340 nm wavelength at room temperature (25° C.)
As for `O=S(=O)(c1ccc2c(c1)OCCO2)N1CCN(S(=O)(=O)c2c(F)cccc2F)CC1`, the AC50 was less than 100 nM.
Compound `Cc1cc2c(s1)c1cnn(Cc3ccccc3F)c(=O)c1n2C` gave an AC50 of less than 100 nM.
On the same count and under the same terms, as for `Cc1cc(C)cc(NS(=O)(=O)c2cccn2-c2ncc(C(F)(F)F)cc2Cl)c1`, the figure is less than 100 nM; as for `O=S(=O)(Nc1ccc(Cl)cc1)c1cccn1-c1ncc(C(F)(F)F)cc1Cl`, less than 100 nM.
Same read-out and setting: as for `O=S(=O)(Nc1ccccc1C(F)(F)F)c1cccn1-c1ncc(C(F)(F)F)cc1Cl`, the figure is more than 500 nM; as for `O=C(COc1ccc(-n2cnnn2)cc1)N1CCN(S(=O)(=O)c2ccc3ccccc3c2)CC1`, 100 to 500 nM.
The same measure, in the same setting: as for `COc1ccccc1N1CCN(C(=O)c2ccc(NS(=O)(=O)c3ccc4ccccc4c3)cc2)CC1`, the figure is more than 500 nM; as for `Cc1cc(C)cc(NS(=O)(=O)c2ccc3c(c2)oc(=O)n3C)c1`, less than 100 nM; as for `O=S(=O)(Nc1ccc2c(c1)OCCO2)c1cncn1-c1ccc(C(F)(F)F)cn1`, more than 500 nM.
`O=S(=O)(Nc1ccc(F)cc1)c1cncn1-c1ccc(C(F)(F)F)cn1` returned an AC50 of more than 500 nM.
`Cc1cc(C)cc(NS(=O)(=O)c2cncn2-c2ncc(C(F)(F)F)cc2Cl)c1` displayed a concentration at half-maximal activity (AC50) of less than 100 nM.
`Cc1cc2oc(=O)n(C)c2cc1S(=O)(=O)Nc1cccc(Cl)c1`: the AC50 was 100 to 500 nM.
In the case of `Cc1cc2oc(=O)n(C)c2cc1S(=O)(=O)Nc1ccc(F)c(Cl)c1`, the AC50 was less than 100 nM.
Compound `Cc1cc2oc(=O)n(C)c2cc1S(=O)(=O)Nc1cc(F)cc(Cl)c1` returned an AC50 of more than 500 nM.
Same read-out and setting: in the case of `COc1ccccc1N1CCN(C(=O)c2ccc(NS(=O)(=O)c3cccc4cccnc34)cc2)CC1` it was less than 100 nM.
Regarding `Cn1c(=O)oc2cc(S(=O)(=O)Nc3cccc(Cl)c3)ccc21`, the AC50 was less than 100 nM.
Same read-out and setting: in the case of `O=S(=O)(Nc1ccc2c(c1)OCO2)c1cccn1-c1ncc(C(F)(F)F)cc1Cl` it was less than 100 nM.
`O=C(c1ccc(NS(=O)(=O)c2ccc(Cl)cc2)cc1)N1CCN(c2ncccn2)CC1`: the concentration at half-maximal activity (AC50) is more than 500 nM.
`Cc1cc(C)cc(NS(=O)(=O)c2ccnn2-c2ncc(C(F)(F)F)cc2Cl)c1`: the AC50 is less than 100 nM.
For the compound `Cc1cc(C)cc(NS(=O)(=O)c2cccn2-c2ncccn2)c1`, the AC50 is less than 100 nM.
On the same count and under the same terms, as for `O=C(c1ccc(NS(=O)(=O)c2cccc3cccnc23)cc1)N1CCN(c2ncccn2)CC1`, the figure is 100 to 500 nM; as for `O=C(c1ccc(NS(=O)(=O)c2cccc3cccnc23)cc1)N1CCN(c2ccccc2)CC1`, less than 100 nM.
Still for that read-out and setting: in the case of `COc1ccccc1N1CCN(C(=O)c2ccc(NS(=O)(=O)c3cccc4cccnc34)nc2)CC1` it was less than 100 nM.
As for `COc1ccccc1N1CCN(C(=O)c2ccc(NS(=O)(=O)c3ccc4c(c3)OCCO4)cc2)CC1`, the AC50 was 100 to 500 nM.
Compound `COc1ccccc1N1CCCN(C(=O)c2ccc(NS(=O)(=O)c3cccc4cccnc34)cc2)CC1` came in with an AC50 of more than 500 nM.
Same read-out and setting: in the case of `Cc1cccc(NS(=O)(=O)c2cncn2-c2ncc(C(F)(F)F)cc2Cl)c1` it was less than 100 nM; in that of `COc1ccccc1N1CCN(C(=O)c2ccc(N(C)S(=O)(=O)c3cccc4cccnc34)cc2)CC1`, less than 100 nM; in that of `O=S(=O)(Nc1cc(F)cc(F)c1)c1cccn1-c1ncc(C(F)(F)F)cc1Cl`, more than 500 nM.
`Cc1cc(NS(=O)(=O)c2cccn2-c2ncc(C(F)(F)F)cc2Cl)ccc1F` showed an AC50 of less than 100 nM.
`COc1ccccc1N1CCN(C(=O)c2ccc(NS(=O)(=O)c3ccc(Cl)c4nonc34)cc2)CC1`: the AC50 was more than 500 nM.
In the case of `O=S(=O)(Nc1ccc(F)c(Cl)c1)c1cncn1-c1cnccn1`, the AC50 is less than 100 nM.
With `O=S(=O)(Nc1ccc(Cl)cc1)c1cncn1-c1cnccn1`, the AC50 was more than 500 nM.
In the case of `Cc1cc(NS(=O)(=O)c2cnn(-c3cnccn3)c2)ccc1F`, the AC50 is 100 to 500 nM.
With `O=C(c1ccc(NS(=O)(=O)c2cccc3cccnc23)cc1)N1CCN(Cc2ccccc2)CC1`, the AC50 was less than 100 nM.
In the case of `O=C(c1ccc(NS(=O)(=O)c2cccc3cccnc23)cc1)N1CCN(Cc2ccccn2)CC1`, the AC50 was less than 100 nM.
Consider `COc1cccc(CN2CCN(C(=O)c3ccc(NS(=O)(=O)c4cccc5cccnc45)cc3)CC2)c1`, for which the half-maximal activity concentration (AC50) was less than 100 nM.
`O=C(c1ccc(NS(=O)(=O)c2cccc3cccnc23)cc1)N1CCN(Cc2cccc(Cl)c2)CC1` showed an AC50 of less than 100 nM.
The same measure, in the same setting: as for `O=C(c1ccc(NS(=O)(=O)c2cccc3cccnc23)cc1)N1CCN(Cc2ccc(Br)cc2)CC1`, the figure is less than 100 nM.
`O=C(c1ccc(NS(=O)(=O)c2cccc3cccnc23)cc1)N1CCN(Cc2ccc(F)cc2)CC1` displayed an AC50 of less than 100 nM.
In turn, `N#Cc1ccc(CN2CCN(C(=O)c3ccc(NS(=O)(=O)c4cccc5cccnc45)cc3)CC2)cc1` showed an AC50 of less than 100 nM.
`CC(=O)c1ccc(CN2CCN(C(=O)c3ccc(NS(=O)(=O)c4cccc5cccnc45)cc3)CC2)cc1` yielded an AC50 of 100 to 500 nM.
In turn, `N#Cc1ccccc1CN1CCN(C(=O)c2ccc(NS(=O)(=O)c3cccc4cccnc34)cc2)CC1` gave an AC50 of less than 100 nM.
With `O=C(c1ccc(NS(=O)(=O)c2cccc3cccnc23)cc1)N1CCN(Cc2ccc(Cl)cc2)CC1`, the AC50 was less than 100 nM.
On the same count and under the same terms, as for `N#Cc1cccc(CN2CCN(C(=O)c3ccc(NS(=O)(=O)c4cccc5cccnc45)cc3)CC2)c1`, the figure is less than 100 nM.
For the compound `CC(=O)c1ccccc1CN1CCN(C(=O)c2ccc(NS(=O)(=O)c3cccc4cccnc34)cc2)CC1`, the AC50 was less than 100 nM.
In turn, `O=C(c1ccc(NS(=O)(=O)c2cccc3cccnc23)cc1)N1CCN(Cc2ccccc2Cl)CC1` showed a concentration at half-maximal activity (AC50) of less than 100 nM.
Take `O=C(c1ccc(NS(=O)(=O)c2cccc3cccnc23)cc1)N1CCN(Cc2ccc(Cl)nc2)CC1`: the AC50 was less than 100 nM.
The compound `O=C(c1ccc(NS(=O)(=O)c2cccc3cccnc23)cc1)N1CCN(Cc2cccnc2Cl)CC1` showed an AC50 of less than 100 nM.
For the compound `COc1ccccc1CN1CCN(C(=O)c2ccc(NS(=O)(=O)c3cccc4cccnc34)cc2)CC1`, the AC50 was less than 100 nM.
`Nc1cccc(S(=O)(=O)N2CCCN(S(=O)(=O)c3cccc4c3OCCO4)CC2)c1` yielded an AC50 of less than 100 nM.

Staying with this data set, now noted: Table 2; PKM2 activation.
As for `COc1ccc(Cl)cc1S(=O)(=O)Nc1ccc2sc(=O)n(C)c2c1`, the AC50 is 1000 to 10000 nM.
The same measure, in the same setting: in the case of `Cn1c(=O)oc2cc(NS(=O)(=O)c3cccs3)ccc21` it was 10000 to 50000 nM.
As for `Cc1ccc(OCC(=O)N2CCN(S(=O)(=O)c3cc4oc(=O)n(C)c4cc3C)CC2)cc1`, the AC50 was 1000 to 10000 nM.
For the compound `COc1ccc(Cl)cc1S(=O)(=O)Nc1ccc2oc(=O)n(C)c2c1` [drawing 74], the AC50 was more than 100000 nM.
`COc1ccc(Cl)cc1S(=O)(=O)Nc1ccc2oc(=O)n(C)c2c1` [drawing 91] displayed an AC50 of less than 1000 nM.

The next data set has as its system A549 cells. As to the kind of experiment: Growth inhibition (GI50) side-by-side in regular RPMI versus BME medium. In kind it is cell-based. The following applies: A549 cells treated for 72 hours. As for the experimental part: FIGS. 9A-9F are graphs depicting the effect of various cytotoxic agents on A549 cell growth in BME.
Cells grown in BME media are not generally more sensitive to cytotoxic agents (FIGS. 9A-9F). A549 cells were grown in RPMI (FIG. 9A, 9B or 9C) or in BME (FIGS. 9D, 9E, and 9F). […] The effect of the PKM2 activators appears to by cytostatic (no induction of apoptosis).
For the compound `CC(=O)O[C@@]12CO[C@@H]1C[C@H](O)[C@@]1(C)C(=O)[C@H](O)C3=C(C)[C@@H](OC(=O)[C@H](O)[C@@H](NC(=O)OC(C)(C)C)c4ccccc4)C[C@@](O)([C@@H](OC(=O)c4ccccc4)[C@H]21)C3(C)C` [docetaxel], the “potency of cytotoxic agent in BME compared with RPMI” value (“potency … compared with RPMI” below) is given as “decreased potency”.
On to `COc1cccc2c1C(=O)c1c(O)c3c(c(O)c1C2=O)C[C@@](O)(C(=O)CO)C[C@@H]3O[C@H]1C[C@H](N)[C@H](O)[C@H](C)O1` [doxorubicin], for which the “potency … compared with RPMI” value is recorded as “decreased potency”.
For `CC[C@]1(O)C[C@@H]2CN(CCc3c([nH]c4ccccc34)[C@@](C(=O)OC)(c3cc4c(cc3OC)N(C)[C@H]3[C@@](O)(C(=O)OC)[C@H](OC(C)=O)[C@]5(CC)C=CCN6CC[C@]43[C@@H]65)C2)C1` [vinblastine], the “potency … compared with RPMI” value is “decreased potency”.

For the origin of these results see patent US20170007608A1, “ACTIVATORS OF PYRUVATE KINASE M2 AND METHODS OF TREATING DISEASE” (AGIOS PHARMACEUTICALS, INC, priority 2011, published 2017).
